# Columns and labels:
# [1] = tested on: TNF-α release from human peripheral blood monocytes; test: Inhibition of tumour necrosis factor (TNF-α) release from human peripheral blood monocytes (lipopolysaccharide challenge); assay type: cell-based; settings: Monocyte, 18 hours incubation with steroid, then 10 ng/ml lipopolysaccharide for 4 hours, read-out: IC50 (steroid concentration reducing TNF-α release by 50%)
# Description: INHIBITION OF TUMOUR NECROSIS FACTOR (TNF-α) RELEASE FROM HUMAN PERIPHERAL BLOOD MONOCYTES Monocytes are obtained from blood samples taken from normal human donors. The leukocyte population is washed, applied to a discontinuous metrizamide gradient, and fractionated by centrifugation. The monocyte-enriched interface is aspirated, the cells washed and total and differential counts performed to determine the number of monocytes. Cells are allowed to adhere to 96-well plates for 1 to 2 hours, and thereafter incubated (8×10^5 monocytes/well) with the steroid for 18 hours (37° C. in 5% CO2). Cells are challenged with 10 ng/ml lipopolysaccharide for 4 hours and TNF-αis assayed by use of an enzyme-linked immunosorbent assay. TNF-α quantification is performed with goat anti-human TNF-α being used as the coating antibody, rabbit anti-human TNF-α as the second antibody, and goat anti-rabbit IgG horseradish peroxidase as the detection antibody. The IC50 is the steroid concentration reducing TNF-α release by 50%.
# [2] = tested on: tyrosine aminotransferase activity, rat liver H4IIE cells; test: Induction of tyrosine aminotransferase activity in rat liver H4IIE cells; assay type: cell-based; settings: overnight incubation, maximum of dexamethasone as reference, method defines ED50 = 50% of the maximum achievable increase, read-out: IC50 (induction of tyrosine aminotransferase activity)
# Description: INDUCTION OF TYROSINE AMINOTRANSFERASE ACTIVITY
# Rat liver H4IIE cells are cultured for 4 days until the cells are confluent. The medium is replaced by fresh medium, containing steroid under test (0-100 nM) which is added to triplicate wells. After overnight incubation as above, the medium is removed and the cells are lysed and the extract is equilibrated at 37° C. with α-ketoglutarate and pyridoxal phosphate in phosphate buffer, pH 7.3, in a final volume of 1 ml. Tyrosine aminotransferase activity is initiated by adding tyrosine and incubating at 37° C. for 10 minutes. The reaction is stopped by adding aqueous sodium hydroxide solution (10M). The ultra-violet absorbance of the para-hydroxybenzaldehyde is measured by a plate reader at 340 nm. The maximal absorbance change achieved with the standard (dexamethasone) is used as a reference. The absorbance change for each concentration of steroid under test is calculated as a fraction of the maximal absorption achievable and plotted against steroid concentration. The ED50 is determined as the concentration causing an increase in tyrosine aminotransferase activity of 50% of the maximum achievable. IC50 =0.3 nM
# [3] = tested on: Sephadex-induced lung oedema in rats; test: animal or person; assay type: in vivo, male rats (Sprague-Dawley strain)
# Description: INHIBITION OF RAT LUNG OEDEMA IN-VIVO:
# Test compounds are suspended in 1% carboxymethyl-cellulose/0.2% Tween 80 at double the required strength and sonicated to form a suspension. This is administered intra-tracheally (i.t.) to male rats (Sprague-Dawley strain, 6 in each group, each weighing about 350 g) at 0 hours and 24 hours, with the first dose being co-administered with saline and the second with Sephadex G200 [cross-linked dextran] (10 mg/ml) giving a final Sephadex concentration of 5 mg/ml. I.t. dosing is carried out under halothane anaesthesia (4% in oxygen, at 4 litres/minute for 3 minutes). At 48 hours, the rats are killed, final body weight is recorded, and the lungs and thymus are removed and weighed. The doses reducing the Sephadex-induced oedema and the thymus weight by 30% (ED30) are calculated. Airway selectivity is defined as the ratio of thymus involution (ED30) and inhibition of lung oedema (ED30).
# [4] = tested on: PMA-induced mouse ear oedema; test: Inhibition of PMA-induced mouse ear oedema in-vivo; design: species or system female mice (CD1 strain); settings: epicutaneous, 18 hours before PMA 1.25 μg/ear; killed 4 hours later
# Description: INHIBITION OF MOUSE EAR OEDEMA IN-VIVO (i) Steroids are dissolved in acetone and administered epicutaneously to the ventral and dorsal surfaces of the right ear pinna of female mice (CD1 strain, 5 in each group, each weighing about 20 g). 18 Hours later, phorbol myristate acetate (PMA, 1.25 μg/ear) in acetone is applied epicutaneously to the right ear. The mice are killed 4 hours later, and a 5 mm disc is punched out of each ear and weighed. The dose reducing PMA-induced oedema by 50% (ED50) is determined from linear regression.
# [5] = tested on: antigen-induced mouse ear oedema; test: Inhibition of antigen-induced mouse ear oedema in-vivo (ovalbumin sensitised mice); settings: topical, 18 hours before intradermal antigen challenge; killed 1 hour later
# Description: INHIBITION OF MOUSE EAR OEDEMA IN-VIVO (ii) Ovalbumin sensitised mice are challenged with antigen injected into the right ear intradermally under 4% halothane anaesthesia (4% in oxygen, 4 litres/minute for 2 minutes) 18 hours after topical treatment with the steroids [as above in (i)]. The mice are killed 1 hour later, and a 5 mm disc is punched out of each ear, and weighed. The dose reducing the oedema by 50% (ED50) is determined as above.
smiles,measurement,setting,value
CCC[C@@H]1O[C@@H]2C[C@H]3[C@@H]4C[C@H](F)C5=CC(=O)CC[C@]5(C)[C@@]4(F)[C@@H](O)C[C@]3(C)[C@]2(SC)O1,IC50,[1],0.25 nM
same,ED50 (induction of tyrosine aminotransferase activity),[2],0.3 nM
same,ED30,"[3]; Rattus norvegicus, inhaled or nasal, i.t. at 0 and 24 hours, rats killed at 48 hours, dose reducing Sephadex-induced oedema by 30%",3 µg/kg
same,Thymus involution: ED30,"[3]; rat, in vivo, 2880 min",2200 µg/kg
same,Airway selectivity (ratio of thymus involution ED30 and inhibition of lung oedema ED30),"[3]; ratio ED30 thymus involution / ED30 lung oedema, i.t., rat",733
same,Inhibition of PMA-induced mouse ear oedema: ED5O,[4],0.0082 μg/ear
same,Inhibition of antigen-induced mouse ear oedema: ED50,[5],0.026 μg/ear
